Values joined by “and” are separate entries in the source; they are usually repeats but may differ in a detail not shown here. Identical values can stand only once. Inconclusive results and toxic doses are left out. The calls were made as follows: active = survival T/C of 150% or more; inactive = T/C below 125% in these data.
System: P388 leukemia ip, CD2F1 mice, survival T/C
Assay: NCI In Vivo Anticancer Drug Screen. Data for tumor model P388 Leukemia (intraperitoneal) in CD2F1 (CDF1) mice
Conditions: endpoint: median survival time, higher = longer survival
Method in brief: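 Mice carrying the transplanted tumor received test compound or vehicle. Survival was recorded in each group, and the value is the treated-group measurement divided by that of the vehicle-treated control group.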

[1] = dose: 50.0 mg/kg/injection, schedule: Q01DX005 (ip), vehicle: saline with Tween-80
[2] = dose: 100.0 mg/kg/injection, schedule: Q01DX005 (ip), vehicle: saline with Tween-80
[3] = dose: 200.0 mg/kg/injection, schedule: Q01DX005 (ip), vehicle: saline with Tween-80
[4] = dose: 12.5 mg/kg/injection, schedule: Q04DX003 (ip), vehicle: saline with Tween-80
[5] = dose: 25.0 mg/kg/injection, schedule: Q04DX003 (ip), vehicle: saline with Tween-80
[6] = dose: 50.0 mg/kg/injection, schedule: Q04DX003 (ip), vehicle: saline with Tween-80
[7] = dose: 200.0 mg/kg/injection, schedule: Q04DX003 (ip), vehicle: saline
[8] = dose: 400.0 mg/kg/injection, schedule: Q04DX003 (ip), vehicle: saline
[9] = dose: 50.0 mg/kg/injection, schedule: Q01DX005 (ip), vehicle: Klucel (hydroxypropylcellulose) (HPC)
[10] = dose: 100.0 mg/kg/injection, schedule: Q01DX005 (ip), vehicle: Klucel (hydroxypropylcellulose) (HPC)
[11] = dose: 100.0 mg/kg/injection, schedule: Q04DX003 (ip), vehicle: saline
[12] = dose: 100.0 mg/kg/injection, schedule: Q01DX001 (ip), vehicle: saline
[13] = dose: 200.0 mg/kg/injection, schedule: Q01DX001 (ip), vehicle: saline
[14] = dose: 400.0 mg/kg/injection, schedule: Q01DX001 (ip), vehicle: saline
[15] = dose: 50.0 mg/kg/injection, schedule: Q01DX005 (ip), vehicle: saline
[16] = dose: 100.0 mg/kg/injection, schedule: Q01DX005 (ip), vehicle: saline
[17] = dose: 200.0 mg/kg/injection, schedule: Q01DX005 (ip), vehicle: saline
[18] = dose: 12.5 mg/kg/injection, schedule: Q01DX009 (ip), vehicle: saline with Tween-80
[19] = dose: 25.0 mg/kg/injection, schedule: Q01DX009 (ip), vehicle: saline with Tween-80
[20] = dose: 50.0 mg/kg/injection, schedule: Q01DX009 (ip), vehicle: saline with Tween-80
[21] = dose: 100.0 mg/kg/injection, schedule: Q01DX009 (ip), vehicle: saline with Tween-80
[22] = dose: 100.0 mg/kg/injection, schedule: Q04DX003 (ip), vehicle: saline with Tween-80
[23] = dose: 200.0 mg/kg/injection, schedule: Q04DX003 (ip), vehicle: saline with Tween-80
[24] = dose: 400.0 mg/kg/injection, schedule: Q04DX003 (ip), vehicle: saline with Tween-80

Measured: T/C

CCN(Cc1cccc(S(=O)(=O)O)c1)c1ccc(C(=C2C=CC(=[N+](CC)Cc3cccc(S(=O)(=O)O)c3)C=C2)c2ccc(O)c(S(=O)(=O)O)c2)cc1
inactive: [1] 97 % of control | [2] 99 % of control | [3] 100 % of control

CCCCN=C(N)N/N=C(\C)c1ccc(-c2ccccc2)cc1
inactive: dose: 1.25 mg/kg/injection, schedule: Q04DX002 (ip), vehicle: saline with Tween-80 102 % of control | dose: 2.5 mg/kg/injection, schedule: Q04DX002 (ip), vehicle: saline with Tween-80 104 % of control | dose: 5.0 mg/kg/injection, schedule: Q04DX002 (ip), vehicle: saline with Tween-80 104 % of control

COC(=O)C(F)C(N)C(=O)O (configuration not stated)
inactive: [4] 100 % of control | [5] 101 % of control | [6] 99 % of control | [7] 103 % of control | [8] 90 % of control

CC1(C)Cc2c([nH]c3ccccc3c2=O)-c2ccccc21
inactive: [9] 96 % of control | [10] 100 % of control | dose: 200.0 mg/kg/injection, schedule: Q01DX005 (ip), vehicle: Klucel (hydroxypropylcellulose) (HPC) 103 % of control

COc1cc2cc[n+](C)cc2cc1OC
inactive: dose: 6.25 mg/kg/injection, schedule: Q01DX009 (ip), vehicle: water 90 % of control | dose: 12.5 mg/kg/injection, schedule: Q01DX009 (ip), vehicle: water 102 % of control | dose: 22.0 mg/kg/injection, schedule: Q01DX009 (ip), vehicle: water 121 % of control | dose: 25.0 mg/kg/injection, schedule: Q01DX009 (ip), vehicle: water 107 % of control | dose: 33.0 mg/kg/injection, schedule: Q01DX009 (ip), vehicle: water 115 % of control | dose: 75.0 mg/kg/injection, schedule: Q01DX009 (ip), vehicle: water 121 % of control | dose: 100.0 mg/kg/injection, schedule: Q01DX009 (ip), vehicle: water 123 % of control

COc1cc2c(cc1O)-c1c(cnn1-c1ccc([N+](=O)[O-])cc1[N+](=O)[O-])CCC2
inactive: [11] 100 % of control | [7] 99 % of control | [8] 96 % of control

OCCCCCCCCCCCC1C=CCC1 (configuration not stated)
inactive: [12] 101 % of control | [13] 101 % of control | [14] 107 % of control

CC1=C(c2ccccc2)C2(c3ccccc3)[N-][n+]3c(ccc4ccccc43)C2(C)C1=O (configuration not stated)
inactive: [9] 97 % of control | [10] 97 % of control

CCOC(=O)CCN1CC=CCC1
inactive: [15] 105 % of control | [16] 102 % of control | [17] 102 % of control

CCOC(=O)CN(CCN(CC)CC)c1ccc([N+](=O)[O-])cc1[N+](=O)[O-]
inactive: dose: 100.0 mg/kg/injection, schedule: Q01DX001 (ip), vehicle: other 95 % of control | dose: 200.0 mg/kg/injection, schedule: Q01DX001 (ip), vehicle: other 100 % of control

Cc1ccc(Oc2ccc(C(=O)C(CN(C)C)CN(C)C)cc2)cc1
inactive: dose: 1.88 mg/kg/injection, schedule: Q01DX005 (ip), vehicle: saline 107 % of control | dose: 3.75 mg/kg/injection, schedule: Q01DX005 (ip), vehicle: saline 110 % of control | dose: 7.5 mg/kg/injection, schedule: Q01DX005 (ip), vehicle: saline 112 % of control and 121 % of control

COC(=O)/C=C1/C2C=CC(O2)C1C(=O)OC (configuration not stated)
inactive: [1] 96 % of control | [2] 99 % of control | [3] 97 % of control

O=C(O)c1ccccc1-c1nc2ccccc2[nH]1
inactive: dose: 100.0 mg/kg/injection, schedule: Q01DX001 (ip), vehicle: saline with Tween-80 99 % of control

CC1(C)C(=O)C(C)(C)C1O[Si](C)(C)OC1C(C)(C)C(=O)C1(C)C
inactive: dose: 100.0 mg/kg/injection, schedule: Q04DX003 (ip), vehicle: Klucel (hydroxypropylcellulose) (HPC) 102 % of control | dose: 200.0 mg/kg/injection, schedule: Q04DX003 (ip), vehicle: Klucel (hydroxypropylcellulose) (HPC) 101 % of control | dose: 400.0 mg/kg/injection, schedule: Q04DX003 (ip), vehicle: Klucel (hydroxypropylcellulose) (HPC) 93 % of control

COC(=O)C1CC(I)C2OC(=O)C1C2C(=O)OC (configuration not stated)
inactive: dose: 60.0 mg/kg/injection, schedule: Q01DX005 (ip), vehicle: saline with Tween-80 91 % of control | dose: 120.0 mg/kg/injection, schedule: Q01DX005 (ip), vehicle: saline with Tween-80 99 % of control | dose: 240.0 mg/kg/injection, schedule: Q01DX005 (ip), vehicle: saline with Tween-80 97 % of control

CNc1ccccc1C(=O)N/N=C/C=C/c1ccccc1
inactive: [18] 102 % of control | [19] 105 % of control | [20] 104 % of control | [21] 118 % of control

COc1cc2c3c(c1O)-c1c(cccc1OC)CC3N(C)CC2 (configuration not stated)
inactive: [4] 90 % of control | [5] 100 % of control and 88 % of control

O=C([O-])CCNC1OC(CO)C(O)C(O)C1O.O=C([O-])CCNC1OC(CO)C(O)C(O)C1O.[Pd+2] (configuration not stated)
inactive: [15] 99 % of control | [16] 102 % of control | [17] 99 % of control

O=C1NC(CO)C(=O)NC1CO (configuration not stated)
inactive: dose: 12.5 mg/kg/injection, schedule: Q01DX009 (ip), vehicle: distilled water + Tween-80 90 % of control | dose: 25.0 mg/kg/injection, schedule: Q01DX009 (ip), vehicle: distilled water + Tween-80 92 % of control | dose: 50.0 mg/kg/injection, schedule: Q01DX009 (ip), vehicle: distilled water + Tween-80 90 % of control | dose: 50.0 mg/kg/injection, schedule: Q01DX009 (ip), vehicle: saline 98 % of control | [6] 100 % of control | dose: 100.0 mg/kg/injection, schedule: Q01DX009 (ip), vehicle: distilled water + Tween-80 93 % of control | dose: 100.0 mg/kg/injection, schedule: Q01DX009 (ip), vehicle: saline 95 % of control | [22] 100 % of control | dose: 200.0 mg/kg/injection, schedule: Q01DX009 (ip), vehicle: distilled water + Tween-80 90 % of control | dose: 200.0 mg/kg/injection, schedule: Q01DX009 (ip), vehicle: saline 98 % of control | [23] 99 % of control | dose: 400.0 mg/kg/injection, schedule: Q01DX009 (ip), vehicle: distilled water + Tween-80 90 % of control | dose: 400.0 mg/kg/injection, schedule: Q01DX009 (ip), vehicle: saline 104 % of control | [24] 99 % of control

Cc1ccc(S(=O)(=O)Nc2cccc3c(NS(=O)(=O)c4ccc(C)cc4)cccc23)cc1
inactive: [21] 100 % of control | [22] 100 % of control | dose: 200.0 mg/kg/injection, schedule: Q01DX009 (ip), vehicle: saline with Tween-80 95 % of control | [23] 90 % of control | [24] 100 % of control

N#CC(Br)(Br)C#N
inactive: dose: 3.13 mg/kg/injection, schedule: Q01DX009 (ip), vehicle: Klucel (hydroxypropylcellulose) (HPC) 117 % of control | dose: 6.25 mg/kg/injection, schedule: Q01DX009 (ip), vehicle: Klucel (hydroxypropylcellulose) (HPC) 114 % of control

CC(=O)CC(C)=NCC(C)N=C(C)CC(C)=O (configuration not stated)
inactive: [11] 100 % of control | [7] 100 % of control | [8] 100 % of control

CC(C)(C)NC(=O)N1C2C3CCC(C)(OC3(C)C)C21 (configuration not stated)
inactive: [1] 98 % of control | [2] 99 % of control

[Cl][Hg][c]1ccccc1N=Nc1ccccc1I
inactive: [18] 101 % of control | [19] 96 % of control | [20] 113 % of control and 98 % of control | [21] 122 % of control and 94 % of control

O=C1OCCOCCOCCOCCOC1=O
inactive: [11] 96 % of control | [7] 101 % of control | [8] 104 % of control

Cn1c(=O)c2nc(-c3ccccc3)cnc2n(C)c1=O
inactive: [12] 99 % of control | [13] 96 % of control | [14] 111 % of control

— PubChem BioAssay AID330 (DTP/NCI, 2004)
